Results taken from patent publication US12258397B2 (Seattle Children's Hospital, priority 2014, dated 2025).
Values joined by “and” are separate entries in the source; they are usually repeats but may differ in a detail not shown here. Equal values may be shown once.

Assays:
H9 cells [1] = test: MTX selection and transgene persistence in H9 cells stably transfected with T3/GFP-T2A-DHFRdm transposon, flow cytometry; format: cell-based, human
Experimental: (§1) H9 cells were cultured in DMEM with 10% FBS. The optimized nucleofection protocol for H9 cells (Lonza) was followed (program X-001, Nucleofector Kit V). Per nucleofection, 1×10^6 cells were used with varying amounts of MC DNA. Cells were grown for a week after nucleofection to achieve stable transfection.
(§2) Live cells were selected based on propidium iodide exclusion by adding propidium iodide in the flow cytometry buffer to 2 μg/ml. Flow cytometry analysis was carried out on a MACSQuant Analyzer (Miltenyi Biotec) and LSRII (BD Biosciences). Collected data was analyzed with FlowJo software. Appropriate negative controls (untransfected H9 cells with and without propidium iodide staining, as well as cells transfected with single genes for GFP, BFP, and mCherry) were used for compensation and gating. A Becton Dickinson FACSAria II was used for cell sorting. Part of flow cytometry work was conducted at the UW Immunology Flow Cytometry Facility.

H9 cells [2] = test: Transposon copy number by qPCR in MTX-selected H9 cells; format: cell-based, human
Experimental: Genomic DNA was extracted with Puregene Kit A according to the manufacturer's instructions (Qiagen), and qPCR was performed using a 7300 Real-Time PCR System (Applied Biosystems) using Universal SYBR Green Supermix (BioRad). Primers for qPCR were designed using Primer3 software: […]
MaxGFP primers are specific for the maxGFP gene in the transposon. Standard curves were generated using genomic DNA of a H9 clone with a single insertion of transposon (“gold standard”) obtained by limiting dilution method. Copy number was calculated using the […] (Schmittgen, T. D. and Livak, K. J. (2008), incorporated in its entirety herein). Characterization of SBTS Integration Distribution.
Plates were incubated for 2-3 weeks, after which clonal populations were moved to larger plates and expanded. GFP expression was confirmed by flow cytometry. Relative RT-qPCR analysis was performed using DNA of 60 individual clones in order to determine transposon copy number.
First, a “gold standard” clone with a single copy of integrated transposon was generated by limiting dilution method. […] A trend of increasing average transposon copy number with increasing selection pressure was observed. […] Statistical difference was assessed by Student's t-test.
Sixty clones were generated by limiting dilution method, GFP expression confirmed by flow cytometry, genomic DNA isolated, and the number of GFP genes per haploid genome analyzed by RT-PCR. Most clones (˜65%) contained multiple copies of GFP.

H9 cells [3] = test: Multiplexed gene integration of three fluorescent protein transposons with MTX step selection, flow cytometry; format: cell-based, human; details: for cells expressing triple transgenes: 200 nM MTX 1 week
Experimental: as §1, §2
H9 cells were nucleofected with three minicircles containing three different reporter genes (maxGFP, mCherry, and BFP) in transposon cassettes and the SB100X transposase minicircle. Stably-transduced cells were then selected for 7 days with 200 nM and cell population assessed by flow cytometry analysis. […] Initial transfection efficiency assessed 24 hours after nucleofection, was 68% (FIG. 6A). The stably transduced population was 37±1.4%, reflecting 54% integration efficiency. Of this population, 19±0.6% expressed two or three different fluorescent proteins. […] Cell viability rebounded to ˜70% during the second round of selection due to further selection for overexpression of the DHFRdm gene.

[4] = system: cells transfected with GFP:SB; test: GFP expression in cells transfected with GFP:SB (SB100X DNA or RNA) under MTX; format: cell-based; details: cells transfected with 5 ug of GFP:SB; 50 uM and 100 uM MTX tested
Experimental: Cells were electroporated with SB100X (DNA or RNA) or transposons carrying genes for GFP, CARS, or GFP/mCherry/BFP. FIG. 20A relates to lymphocytes; FIG. 20B relates to single cells; FIG. 20C relates to live cells; FIG. 20D relates to GFP; FIG. 20E relates to a time-line.
As shown in the figure are several scattergrams of the cells that are transfected with GFP gene carrying transposons. Several samples of cells are transfected with DNA comprising a gene for GFP expression (2.5 ug and 5 ug), mcGFP only, and RNA (1 ug and 3 ug).
FIGS. 24A-24B relate to expression of GFP in cells transfected with GFP:SB. […] FIG. 24B relates to the experiment was performed using RNA, however, DNA has a higher efficiency for leading to expression of the protein.

[5] = 60 clones from population selected with 200 nM MTX

In the case of CN(Cc1cnc2nc(N)nc(N)c2n1)c1ccc(C(=O)N[C@@H](CCC(=O)O)C(=O)O)cc1 [MTX, methotrexate], the “decrease in mean GFP expression by 4 weeks post-MTX withdrawal” value (“decrease in mean GFP expression” for short) (H9 cells [1]; 50 nM MTX selection) was 28%, the “decrease in mean GFP expression” value (H9 cells [1]; 100 nM MTX selection) was 27% and the “GFP+ population four weeks post-MTX withdrawal” value (H9 cells [1]; 200 nM MTX for 2 weeks) was 97%. The “decrease in mean GFP expression” value (H9 cells [1]; 200 nM MTX selection) was 21%, the “GFP+ population four weeks post-MTX withdrawal” value (H9 cells [1]; all populations (50, 100, 200 nM MTX for 2 weeks)) was greater than 90% and the “GFP+ cells” value (H9 cells [1]; by 7 days post-selection, all conditions (50 to 200 nM MTX)) was greater than 94%. For the same compound, the “average number of integration events in clones” value (H9 cells [2]; [5]) was 1.8 and 1.78±0.69, the “clones containing multiple copies of GFP” value (H9 cells [2]; [5]) was roughly 65% and the “average integration events (transposon copy number per human haploid genome)” value (H9 cells [2]; cell population selected with 200 nM MTX, RT-qPCR) was 2.1±0.45. For the same compound, the “cells expressing triple transgenes” value (H9 cells [3]; then 500 nM MTX additional week) was 38.5±1.0%, the “cells expressing triple transgenes” value (H9 cells [3]; then 1000 nM MTX additional week) was 53.1±0.3% and the cell viability (H9 cells [3]; during the second round of selection) was roughly 70%. For the same compound, the “cells expressing three transgene products” value (H9 cells [3]; two-step selection, two successive MTX selection rounds) was 50% and the “MTX concentration at which cells express GFP optimally” value [4] was 50 µM.
